Test results reported in patent publication US20030229037A1, “Novel cationic amphiphiles” (priority 2000, published 2003).

How the values were obtained:
COS-7 cells [1] = assay: Transfection of COS-7 cells with lipid/DNA lipoplexes (luciferase reporter plasmid pCMXluc), efficiency relative to DOTAP; assay type: cell-based, green meerkat; conditions: for relative transfection efficiency (maximum): COS-7, pCMXluc, cationic lipid/DOPE 1:1, most effective lipid/DNA ratio of 1:1 to 15:1, 48 h, RLU/µg protein based on DOTAP = 100%
Description: A transfection experiment with cationic lipids can be broken down into four different individual steps. An important prerequisite for the success of a transfection experiment is the successful preparation of liposomes from the lipids to be tested (Step 1). DNA dissolved in buffer is then added to these liposomes, forming lipid/DNA complexes called lipoplexes (Step 2). The lipoplexes are then added to the cells (Step 3). The lipoplexes mediate the uptake of the DNA in the cell. Finally, the success of a transfection is quantified by determining the quantity of gene product forms and any toxicity that may occur is quantified by measuring the quantity of total protein (Step 4).
A reporter plasmid pCMXluc containing 8,600 base pairs (provided by R. Schüle) that codes for the enzyme luciferase was used to manufacture the lipoplexes. The composition of the lipoplexes and especially the proportion of lipid/DNA [Weibel et al., 1995; Felgner et al., 1994] are critical factors for obtaining a high level of protein expression. The number of negative charges of the plasmid used (one negatively-charged phosphate group per base) and the number of positive charges caused by adding cationic liposomes were used to calculate the proportion of lipid/DNA. For polycationic lipids, the number of all amino functions contained in the head group was made equal to the number of positive charges per lipid. Eight different lipoplexes with charge ratios from 1:1 to 15:1 were manufactured for each cationic lipid. In this process, each lipoplex received the same quantity of DNA but different quantities of lipid. An overview of the model calculation of various proportions of lipid/DNA is presented below.
After the plasmid (dissolved in buffer) was added to the liposomes, a pipette was used to carefully mix the formulation. It was then allowed to stand at room temperature for 60 minutes to allow the lipoplexes to form. The ripening conditions used here to prepare lipoplexes are based on findings described earlier [Yang and Huang, 1998] and also represent the result of a systematic optimization of lipoplex ripening conditions that were determined using a simple cationic lipid and a tricationic lipid, and which were used here to prepare all lipoplexes [Regelin, 2000].
The COS-7 cell line (kidney cells from the green meerkat, fibroblast-like cells) which is often used in transfection studies [You et al., 1999; Yu et al., 1999] was used for the cell experiments. This cell line is known to be easy to transfect and grows adherently. It was therefore expected that transfection data could be matched up with all synthesized cationic lipids, and that structure/effectiveness relationships could therefore be identified. The cell experiments were carried out in 96-well microtiter plates with 5,000 cells per well. Cell density has a considerable influence on the success of a transfection experiment when COS-7 cells are used [Deshmukh and Huang, 1997]: on the one hand, cells that are sowed too densely are harder to transfect than less densely sowed cells due to their reduced tendency to divide. While it is not the intention of the applicant to be bound to any particular theory, nor to affect in any measure the scope of the appended claims, it is presently believed that the explanation lies in that plasmids pass more easily into the nucleus of dividing cells [Mortimer et al., 1999], because the […] becomes full of holes or is dissolved during cell division. On the other hand, transfections of cells that have a very low cell density are often associated with elevated cytotoxicity, because more lipoplexes are now available per cell. A moderate cell density of 40-50% confluence, at which a sufficient level of cell division is observed, was selected for the transfection experiments to be carried out as part of this work. […]

[2] = amino groups, aqueous solution; literature values; cited from earlier work
[3] = Liposome preparation (lipid film hydration, ultrasound) and size distribution by photon correlation spectroscopy; assay type: physicochemical; conditions: equimolar DOPE, HBS buffer pH 7.4, ultrasound bath
Description: Preferably, the cationic amphiphile and helper lipid are present in a molar mixing ratio of from about five to one to about one to five. More preferably, the cationic amphiphile and helper lipid are present in a molar mixing ratio of from about two to one to about one to two. Still more preferably, the molar mixing ratio of cationic amphiphile to helper lipid is about 1:1. To prepare liposomes, the cationic lipid to be tested and a helper lipid were dissolved in an organic solvent (e.g., chloroform/methanol mixtures).
The lipid films can be hydrated by adding buffer, which also gives rise to multilamellar vesicles (MLV). The MLV are then converted into small unilamellar vesicles (SUV) via ultrasonic treatment. [Moog, 1999; Lasic, 1994 and 1995]. The duration of exposure to ultrasound required until a homogenous population of SUV formed depended on the strength of the ultrasound bath. When a common commercial ultrasound bath was used, the process lasted 15-20 minutes. When a high performance ultrasound bath from Bandelin was used (which is also used to homogenize tissue samples) the same results were obtained after just 2 minutes. All liposomes were characterized by measuring their size distribution using photon correlation spectroscopy. In this process, the sizes of liposomes found were preferably between about 20 and about 200 nm, more preferably between about 50 and about 150 nanometers.
To make the liposome preparation, dissolve 1.29 μmol of the simple cationic lipid to be tested (bicationic: 0.645 μmol, tricationic: 0.43 μmol) in chloroform/methanol (2:1 v/v) in a test tube with an equimolar quantity of DOPE. Use the simple cationic lipid DOTAP without the addition of DOPE.
Slowly blow off the organic solvent with a TCS sample preparation system (Vapotherm, BARLEY, Bielefeld, Germany) using nitrogen (30-60 minutes) at room temperature. The dried lipid films can be stored for many months at −20° C. […]

COS-7 cells [4] = assay: Total protein quantity per well (BCA test) as measure of cytotoxicity of the lipoplexes; assay type: cell-based, green meerkat; conditions: COS-7, lipid/DOPE 1:1 lipoplexes, 48 h
Description: 48 hours after the lipoplexes were added, the medium was removed and the cells were washed, because the medium would interfere with the tests to determine the transfection data. The cells were then lysed in order to make a homogeneous cell protein solution. The lysate of every single well was distributed and the total quantity of protein and the luciferase activity were determined in independent assays.
The total protein quantity was determined using the BCA test with bovine serum albumin as the standard and indicated in the unit μg/well. The protein quantity measured correlates with the number of adherent, living cells still present after transfection and can therefore be used as a measure of toxicity of the respective lipoplexes [Gao and Huang, 1991]. Comparisons of the protein quantities measured with results from cytotoxicity assays that were performed [Regelin, 2000] verify this relationship. The measured values were used in the calculation of transfection efficiency (see below).
Remove the supernatant medium completely, wash the cells once with a 0.9% NaCl solution, then add 50 μl lysis buffer (ROCHE, Germany) per well. […] Use a BCA test (PIERCE, Rockford, USA) to determine the quantity of total protein per well. […] Determine the protein concentration using the calibration curve in the spectral photometer (Spectra, TECAN, Germany) by quantifying the absorption at λ=550 nm.

Row | Compound | relative transfection efficiency (maximum) (COS-7 cells [1]) | liposome formation in mixture with DOPE [3] | other results
1 | CCCCCCCC/C=C\CCCCCCCC(=O)OCC(C[N+](C)(C)C)OC(=O)CCCCCCC/C=C\CCCCCCCC.[Cl-] (stereo not shown) [DOTAP, N-[1-(2,3-dioleoyloxy)propyl]-N,N,N-trimethylammoniumchloride, reference compound] |  |  | transfection efficiency of the standard lipid (defined as 100%) (COS-7 cells [1]; DOTAP without DOPE, lipid/DNA 2.5:1, COS-7, external standard in each microtiter plate): 100%
2 | NCCCCNCCCN [Spermidine] |  |  | pKa [2]: above 8
3 | CCCCCCCCCCCCCCOCC(COC(=O)CN(C)C)OCCCCCCCCCCCCCC (stereo not shown) [compound 110] | only very low transfection efficiencies | formed no liposomes | 
4 | CCCCCCCCCCCCCCOCC(COC(=O)C[N+](C)(C)C)OCCCCCCCCCCCCCC (stereo not shown) [compound 111] | 83% | used successfully in a mixture with DOPE to prepare liposomes | 
5 | CC(C)CCC[C@@H](C)[C@H]1CC[C@H]2[C@@H]3CC=C4C[C@@H](OC(=O)CN(C)C)CC[C@]4(C)[C@H]3CC[C@]12C [lipid 4, N-Cholesteryloxycarbonylmethyl-N,N-dimethylamine] | did not result in a single transfection | liposomes could not be prepared | cytotoxicity of the lipoplexes (total protein quantity) (COS-7 cells [4]): No cytotoxicity was observed
6 | CCCCCCCCCCCCCCOCC(COC(=O)CNCCCCNCCCN)OCCCCCCCCCCCCCC.O=CO (stereo not shown) [lipid 115, 10-((2,3-di-tetradecyloxy)-propyloxcarbonylmethyl)-1,5,10-triazadekan formic acid salt] | 135% |  | 
7 | CN(C)C [trimethylamine] |  |  | pKa [2]: ~10
8 | Lipid A | approx. 300% |  | cytotoxicity of the lipoplexes (total protein quantity) (COS-7 cells [4]): do not exhibit elevated cytotoxicities
